PubChem BioAssay AID256 (DTP/NCI, 2004)
Toxic doses and inconclusive results are not listed. How the source made its calls: active means survival T/C of 150% or more; inactive means T/C below 125% in these data.

Test system: CD2F1 mice, L1210 leukemia ip, survival T/C
Assay: NCI In Vivo Anticancer Drug Screen. Data for tumor model L1210 Leukemia (intraperitoneal) in CD2F1 (CDF1) mice
Details: endpoint: mean survival time, higher = longer survival
Procedure, shortened: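 Vehicle-treated tumor-bearing mice served as controls (C) for compound-treated mice (T). Reported figure is T divided by C.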

[1] = dose: 50.0 mg/kg/injection, schedule: Q01DX009 (ip), vehicle: saline with Tween-80
[2] = dose: 100.0 mg/kg/injection, schedule: Q01DX009 (ip), vehicle: saline with Tween-80
[3] = dose: 200.0 mg/kg/injection, schedule: Q01DX009 (ip), vehicle: saline with Tween-80
[4] = dose: 400.0 mg/kg/injection, schedule: Q01DX009 (ip), vehicle: saline with Tween-80
[5] = dose: 100.0 mg/kg/injection, schedule: Q04DX003 (ip), vehicle: saline
[6] = dose: 200.0 mg/kg/injection, schedule: Q04DX003 (ip), vehicle: saline
[7] = dose: 400.0 mg/kg/injection, schedule: Q04DX003 (ip), vehicle: saline
[8] = dose: 100.0 mg/kg/injection, schedule: Q04DX002 (ip), vehicle: saline with Tween-80
[9] = dose: 200.0 mg/kg/injection, schedule: Q04DX002 (ip), vehicle: saline with Tween-80
[10] = dose: 400.0 mg/kg/injection, schedule: Q04DX002 (ip), vehicle: saline with Tween-80
[11] = dose: 12.5 mg/kg/injection, schedule: Q01DX005 (ip), vehicle: water
[12] = dose: 25.0 mg/kg/injection, schedule: Q01DX005 (ip), vehicle: water
[13] = dose: 50.0 mg/kg/injection, schedule: Q04DX003 (ip), vehicle: saline with Tween-80
[14] = dose: 100.0 mg/kg/injection, schedule: Q04DX003 (ip), vehicle: saline with Tween-80
[15] = dose: 200.0 mg/kg/injection, schedule: Q04DX003 (ip), vehicle: saline with Tween-80
[16] = dose: 400.0 mg/kg/injection, schedule: Q04DX003 (ip), vehicle: saline with Tween-80

Measured: T/C

CC[C@H](CC[C@@H](C)C1CC[C@H]2[C@@H]3CC=C4C[C@@H](OP(=O)(N5CC5)N5CC5)CC[C@]4(C)[C@H]3CC[C@]12C)C(C)C (some centres undefined)
inactive: dose: 12.5 mg/kg/injection, schedule: Q01DX009 (ip), vehicle: saline with Tween-80 97 % of control | dose: 25.0 mg/kg/injection, schedule: Q01DX009 (ip), vehicle: saline with Tween-80 92 % of control | [1] 93 % of control | [2] 92 % of control | [3] 108 % of control | [4] 97 % of control

O=C(Nc1ccc(S(=O)(=O)F)c(Cl)c1)Oc1ccccc1
inactive: [2] 101 % of control | [5] 95 % of control | [3] 100 % of control | [6] 95 % of control | [4] 97 % of control | [7] 101 % of control

O=S(=O)(c1ccc(NC(=S)N/N=C/c2ccccc2O)cc1)N1CCCCC1
inactive: dose: 12.5 mg/kg/injection, schedule: Q01DX009 (ip), vehicle: olive oil, sesame oil, peanut oil 98 % of control | dose: 25.0 mg/kg/injection, schedule: Q01DX009 (ip), vehicle: olive oil, sesame oil, peanut oil 94 % of control | dose: 50.0 mg/kg/injection, schedule: Q01DX009 (ip), vehicle: olive oil, sesame oil, peanut oil 102 % of control | dose: 100.0 mg/kg/injection, schedule: Q01DX009 (ip), vehicle: olive oil, sesame oil, peanut oil 104 % of control | dose: 200.0 mg/kg/injection, schedule: Q01DX009 (ip), vehicle: olive oil, sesame oil, peanut oil 94 % of control | dose: 400.0 mg/kg/injection, schedule: Q01DX009 (ip), vehicle: olive oil, sesame oil, peanut oil 96 % of control

O=[N+]([O-])O.O=[N+]([O-])O.[Cu].c1ccc(CN2CCN(Cc3ccccc3)CCN(Cc3ccccc3)CCN(Cc3ccccc3)CC2)cc1
inactive: dose: 6.25 mg/kg/injection, schedule: Q01DX001 (ip), vehicle: Klucel (hydroxypropylcellulose) (HPC) 91 % of control | dose: 12.5 mg/kg/injection, schedule: Q01DX001 (ip), vehicle: Klucel (hydroxypropylcellulose) (HPC) 94 % of control | dose: 25.0 mg/kg/injection, schedule: Q01DX001 (ip), vehicle: Klucel (hydroxypropylcellulose) (HPC) 108 % of control | dose: 50.0 mg/kg/injection, schedule: Q01DX001 (ip), vehicle: Klucel (hydroxypropylcellulose) (HPC) 100 % of control

CC#CC(=O)OC
inactive: [1] 104 % of control | [2] 104 % of control | [3] 96 % of control

c1ccc2sc(SCCSc3nc4ccccc4s3)nc2c1
inactive: dose: 25.0 mg/kg/injection, schedule: Q04DX002 (ip), vehicle: saline with Tween-80 107 % of control | [8] 88 % of control | [9] 87 % of control | [10] 87 % of control

NCc1ccc(-n2cnc3c(=O)[nH]c(N)nc32)cc1
inactive: dose: 50.0 mg/kg/injection, schedule: Q04DX002 (ip), vehicle: saline with Tween-80 90 % of control | [8] 107 % of control | [9] 101 % of control

O=C(OCC1OC(n2ccn(C3OC(COC(=O)c4ccccc4)C(OC(=O)c4ccccc4)C3OC(=O)c3ccccc3)c2=S)C(OC(=O)c2ccccc2)C1OC(=O)c1ccccc1)c1ccccc1 (centres undefined)
inactive: [11] 102 % of control | [12] 104 % of control | dose: 50.0 mg/kg/injection, schedule: Q01DX005 (ip), vehicle: water 94 % of control | dose: 100.0 mg/kg/injection, schedule: Q01DX005 (ip), vehicle: water 94 % of control | dose: 200.0 mg/kg/injection, schedule: Q01DX005 (ip), vehicle: water 94 % of control

CCN(CC)CCSCCSCCN(CC)CC
inactive: dose: 100.0 mg/kg/injection, schedule: Q01DX001 (ip), vehicle: saline 100 % of control | dose: 200.0 mg/kg/injection, schedule: Q01DX001 (ip), vehicle: saline 100 % of control

C[As](C)[Se]CC1OC(O)C(O)C(O)C1O (centres undefined)
inactive: dose: 12.5 mg/kg/injection, schedule: Q04DX003 (ip), vehicle: saline with Tween-80 97 % of control | dose: 25.0 mg/kg/injection, schedule: Q04DX003 (ip), vehicle: saline with Tween-80 101 % of control | [13] 98 % of control

CCC[CH2][Sn]1([CH2]CCC)[N](S(=O)(=O)c2ccc(C)cc2)c2ccccc2[N]1S(=O)(=O)c1ccc(C)cc1
inactive: dose: 3.13 mg/kg/injection, schedule: Q04DX002 (ip), vehicle: saline with Tween-80 94 % of control | dose: 6.25 mg/kg/injection, schedule: Q04DX002 (ip), vehicle: saline with Tween-80 102 % of control | dose: 12.5 mg/kg/injection, schedule: Q04DX002 (ip), vehicle: saline with Tween-80 94 % of control

COC(=O)[C@]1(C)CCC[C@]2(C)[C@H]3CC4OO[C@@]3(CC[C@H]21)[C@H]1O[C@@]41C(C)C
inactive: [2] 97 % of control | dose: 125.0 mg/kg/injection, schedule: Q01DX009 (ip), vehicle: Klucel (hydroxypropylcellulose) (HPC) 96 % of control | [3] 101 % of control | dose: 250.0 mg/kg/injection, schedule: Q01DX009 (ip), vehicle: Klucel (hydroxypropylcellulose) (HPC) 96 % of control | [4] 98 % of control | dose: 500.0 mg/kg/injection, schedule: Q01DX009 (ip), vehicle: Klucel (hydroxypropylcellulose) (HPC) 97 % of control

CC(C)=CCO
inactive: [5] 105 % of control | [6] 94 % of control | [7] 94 % of control

N#Cc1cn(C2OC(CO)C(O)C2O)c2ncn3ncnc3c12 (centres undefined)
inactive: dose: 3.13 mg/kg/injection, schedule: Q01DX005 (ip), vehicle: water 102 % of control | dose: 6.25 mg/kg/injection, schedule: Q01DX005 (ip), vehicle: water 102 % of control | dose: 12.5 mg/kg/injection, schedule: Q01DX005 (ip), vehicle: distilled water + Tween-80 122 % of control | [11] 112 % of control | dose: 25.0 mg/kg/injection, schedule: Q01DX005 (ip), vehicle: distilled water + Tween-80 112 % of control | [12] 120 % of control | dose: 50.0 mg/kg/injection, schedule: Q01DX005 (ip), vehicle: distilled water + Tween-80 116 % of control | dose: 100.0 mg/kg/injection, schedule: Q01DX005 (ip), vehicle: distilled water + Tween-80 106 % of control

O=C(O)C1C2CC3C(OC(=O)C31)C2Br (centres undefined)
inactive: [5] 105 % of control | [6] 96 % of control | [7] 102 % of control

C=CC(C)n1c(=O)c2c(ncn2C)n(C)c1=O (centres undefined)
inactive: dose: 0.78 mg/kg/injection, schedule: Q04DX003 (ip), vehicle: saline with Tween-80 102 % of control | dose: 1.56 mg/kg/injection, schedule: Q04DX003 (ip), vehicle: saline with Tween-80 102 % of control | dose: 3.12 mg/kg/injection, schedule: Q04DX003 (ip), vehicle: saline with Tween-80 105 % of control

CCOC(=O)C12CCCCC1C/C(=N/NC(N)=O)CC2 (centres undefined)
inactive: [13] 96 % of control | dose: 100.0 mg/kg/injection, schedule: Q01DX001 (ip), vehicle: acetone 92 % of control | dose: 100.0 mg/kg/injection, schedule: Q04DX003 (ip), vehicle: acetone 96 % of control | [14] 96 % of control | dose: 200.0 mg/kg/injection, schedule: Q01DX001 (ip), vehicle: acetone 94 % of control | dose: 200.0 mg/kg/injection, schedule: Q01DX001 (ip), vehicle: saline with Tween-80 88 % of control | dose: 200.0 mg/kg/injection, schedule: Q04DX003 (ip), vehicle: acetone 90 % of control | dose: 400.0 mg/kg/injection, schedule: Q01DX001 (ip), vehicle: acetone 97 % of control | dose: 400.0 mg/kg/injection, schedule: Q04DX003 (ip), vehicle: acetone 90 % of control

CC1(C)COC(CCc2ccccc2)=N1
inactive: [8] 108 % of control | [14] 104 % of control | [9] 101 % of control | [15] 93 % of control | [10] 101 % of control | [16] 86 % of control

O=C(c1ccccc1)C(Sc1ccccc1)c1ccccc1 (centres undefined)
inactive: [14] 97 % of control | [15] 101 % of control | [16] 97 % of control

S=C1NCCS1
inactive: dose: 75.0 mg/kg/injection, schedule: Q01DX009 (ip), vehicle: Klucel (hydroxypropylcellulose) (HPC) 95 % of control | dose: 150.0 mg/kg/injection, schedule: Q01DX009 (ip), vehicle: Klucel (hydroxypropylcellulose) (HPC) 96 % of control | dose: 300.0 mg/kg/injection, schedule: Q01DX009 (ip), vehicle: Klucel (hydroxypropylcellulose) (HPC) 101 % of control
